Results on 13 molecules are retold here after ChEMBL document CHEMBL4811243, “Design, synthesis, and biological evaluation of a novel dual peroxisome proliferator-activated receptor alpha/delta agonist for the treatment of diabetic kidney disease through anti-inflammatory mechanisms” (Eur J Med Chem, 2021).

Series [1] has as its target T1, Peroxisome proliferator-activated receptor gamma (Homo sapiens, UniProt P37231).
T1 sequence (P37231 whole entry): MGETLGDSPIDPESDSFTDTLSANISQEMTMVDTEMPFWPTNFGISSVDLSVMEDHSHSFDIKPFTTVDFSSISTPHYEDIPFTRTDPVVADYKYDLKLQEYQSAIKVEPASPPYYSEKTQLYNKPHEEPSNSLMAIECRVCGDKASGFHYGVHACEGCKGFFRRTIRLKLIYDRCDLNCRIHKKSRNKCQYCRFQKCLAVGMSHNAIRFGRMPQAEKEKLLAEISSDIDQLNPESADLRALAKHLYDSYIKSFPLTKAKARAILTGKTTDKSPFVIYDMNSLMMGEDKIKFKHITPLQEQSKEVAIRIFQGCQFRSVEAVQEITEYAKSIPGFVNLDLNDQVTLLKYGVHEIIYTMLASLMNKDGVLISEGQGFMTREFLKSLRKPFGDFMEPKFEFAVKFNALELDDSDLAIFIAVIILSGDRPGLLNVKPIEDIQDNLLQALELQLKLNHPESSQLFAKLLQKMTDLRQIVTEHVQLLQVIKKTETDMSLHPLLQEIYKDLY
The experiment in a line: Agonist activity at human Gal4 fused PPARgamma LBD expressed in COS-7 cells incubated for 24 hrs by firefly luciferase reporter gene assay. In kind it is cell-based. (In general: In a reporter assay the amount or activity of a reporter protein is the signal.)

In series [2] the target is T2, Peroxisome proliferator-activated receptor alpha (Homo sapiens, UniProt Q07869).
T2 sequence (Q07869 whole entry): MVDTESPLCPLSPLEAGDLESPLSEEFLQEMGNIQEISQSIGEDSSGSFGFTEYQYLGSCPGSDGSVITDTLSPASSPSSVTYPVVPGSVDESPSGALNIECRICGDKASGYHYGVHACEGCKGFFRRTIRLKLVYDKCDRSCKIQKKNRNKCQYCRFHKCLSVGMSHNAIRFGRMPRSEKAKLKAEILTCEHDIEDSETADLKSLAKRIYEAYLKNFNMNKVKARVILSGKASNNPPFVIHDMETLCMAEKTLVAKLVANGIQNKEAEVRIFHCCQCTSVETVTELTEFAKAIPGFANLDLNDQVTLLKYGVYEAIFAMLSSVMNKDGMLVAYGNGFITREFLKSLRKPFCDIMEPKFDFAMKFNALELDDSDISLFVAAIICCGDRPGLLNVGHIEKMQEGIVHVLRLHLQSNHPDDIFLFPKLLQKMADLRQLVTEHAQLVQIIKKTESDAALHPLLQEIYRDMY
The experiment in a line: Agonist activity at human Gal4 fused PPARalpha LBD expressed in COS-7 cells incubated for 24 hrs by firefly luciferase reporter gene assay. In kind it is cell-based.

In series [3] the target is T3, Peroxisome proliferator-activated receptor delta (Homo sapiens, UniProt Q03181).
T3 sequence (Q03181 whole entry): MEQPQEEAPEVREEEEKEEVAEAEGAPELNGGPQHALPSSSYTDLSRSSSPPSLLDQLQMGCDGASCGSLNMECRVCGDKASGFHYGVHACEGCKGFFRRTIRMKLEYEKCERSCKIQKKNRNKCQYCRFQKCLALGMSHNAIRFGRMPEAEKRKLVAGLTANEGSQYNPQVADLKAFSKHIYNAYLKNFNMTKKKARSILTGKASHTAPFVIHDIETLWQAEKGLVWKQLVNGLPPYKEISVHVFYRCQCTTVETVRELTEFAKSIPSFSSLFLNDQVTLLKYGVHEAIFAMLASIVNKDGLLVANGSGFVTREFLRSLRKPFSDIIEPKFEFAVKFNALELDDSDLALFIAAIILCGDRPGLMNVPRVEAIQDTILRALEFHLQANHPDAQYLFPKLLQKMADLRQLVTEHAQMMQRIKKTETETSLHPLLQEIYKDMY
Briefly: Agonist activity at human Gal4 fused PPARdelta LBD expressed in COS-7 cells incubated for 24 hrs by firefly luciferase reporter gene assay. It is filed as cell-based.

Series [4] is described as follows: Hepatotoxicity in STZ-induced Sprague-Dawley rat diabetic kidney disease model assessed as serum ALT level at 25 to 50 mg/kg, po administered twice a day for 6 weeks. In kind it is toxicity, organism-based. Particulars: in vivo, 1008 h, dose 25-50 mg/kg.
A short description of series [5]: Hepatotoxicity in STZ-induced Sprague-Dawley rat diabetic kidney disease model assessed as serum AST level at 25 to 50 mg/kg, po administered twice a day for 6 weeks. It is filed as toxicity, organism-based. The conditions noted are these: in vivo, 1008 h, dose 25-50 mg/kg.
Series [6] can be described thus: Cytotoxicity against human GMCs assessed as reduction in cell viability at 1 to 30 uM after 48 hrs by CCK-8 assay. It is filed as tissue-based. Particulars: glomerular mesangial cell, dose 1-30 µM.
Another series deals with THP-1. Briefly: Cytotoxicity against human THP-1 assessed as reduction in cell viability at 1 to 30 uM after 48 hrs by CCK-8 assay. In kind it is cell-based. Particulars: thp-1, 48 h, dose 1-30 µM. (Tetrazolium assays rely on reduction of a dye to a coloured formazan, in cell work by metabolically active cells.)

`Cc1cc(COc2ccc3c(c2)O/C(=C\c2ccc(C#N)cc2)C3=O)cc(C)c1OC(C)(C)C(=O)O` yielded an EC50 in series [1] of more than 10 µM.

`Cc1ccc(/C=C2\Oc3cc(OCc4cc(C)c(OC(C)(C)C(=O)O)c(C)c4)ccc3C2=O)cc1` yielded an EC50 in series [1] of more than 10 µM.

Molecule `Cc1cc(COc2ccc3c(c2)O/C(=C\c2ccccc2C(F)(F)F)C3=O)cc(C)c1OC(C)(C)C(=O)O` displayed a concentration giving a half-maximal response (EC50) in series [1] of more than 10 µM.

Take `Cc1cc(COc2ccc3c(c2)O/C(=C\c2ccc(F)cc2)C3=O)cc(C)c1OC(C)(C)C(=O)O`: the EC50 in series [2], in series [3] and in series [1] was more than 10 µM each time.

For `CCOc1ccc(/C=C2\Oc3cc(OCc4cc(C)c(OC(C)(C)C(=O)O)c(C)c4)ccc3C2=O)cc1`, the EC50 in series [2] and in series [1] was more than 10 µM in each case.

For `Cc1cc(COc2ccc3c(c2)O/C(=C\c2ccc(C(F)(F)F)cc2)C3=O)cc(C)c1OC(C)(C)C(=O)O`, the Activity entry (in series [4]; in series [5]; in series [6]; in the series with THP-1) was “Non-Toxic” throughout.

In series [1], `Cc1cc(COc2ccc3c(c2)O/C(=C\c2ccccc2)C3=O)cc(C)c1OC(C)(C)C(=O)O` showed an EC50 of more than 10 µM.

In the case of `Cc1cc(COc2ccc3c(c2)O/C(=C\c2ccc(C(C)C)cc2)C3=O)cc(C)c1OC(C)(C)C(=O)O`, the concentration giving a half-maximal response (EC50) in series [1] was more than 10 µM.

On to `CSc1ccc(C(=O)/C=C/c2cc(C)c(OC(C)(C)C(=O)O)c(C)c2)cc1` [ELAFIBRANOR], for which the EC50 in series [2] turned out to be 0.76 µM; in series [1], 2.79 µM.

Consider `Cc1cc(COc2ccc3c(c2)O/C(=C\c2ccc4ccccc4c2)C3=O)cc(C)c1OC(C)(C)C(=O)O`, for which, in series [1], the EC50 was more than 10 µM.

`Cc1cc(COc2ccc3c(c2)O/C(=C\c2ccc(Cl)cc2)C3=O)cc(C)c1OC(C)(C)C(=O)O` displayed an EC50 in series [1] of more than 10 µM.

`Cc1cc(COc2ccc3c(c2)O/C(=C\c2ccc(Br)cc2)C3=O)cc(C)c1OC(C)(C)C(=O)O`: the EC50 in series [1] is more than 10 µM.

Regarding `COc1ccc(/C=C2\Oc3cc(OCc4cc(C)c(OC(C)(C)C(=O)O)c(C)c4)ccc3C2=O)cc1`, the EC50 in series [2] and in series [1] was more than 10 µM in each case.

The EC50 is the concentration that produces a half-maximal response.
